Test results as given in US20100273806A1, “TETRAHYDROCYCLOPENTA[B]INDOL-3-YL CARBOXYLIC ACID DERIVATIVES USEFUL IN THE TREATMENT OF AUTOIMMUNE AND INFLAMMATORY DISORDERS” (ARENA PHARMACEUTICALS, INC., priority 2007, published 2010).
“Also recorded” adds a separate entry of the source.

What was measured:
[1] = biological target: T1, S1P1 receptor (Homo sapiens, UniProt P21453); experiment: HTRF assay for direct cAMP measurement (S1P1 receptor agonists); format: cell-based; conditions: recombinant CHO-K1 cells stably transfected with S1P1 receptor; decrease of cAMP concentration
T1 construct: expressed in transfected cells; host or cells: CHO-K1 (ATCC CCL-61), stably transfected
Text: Compounds were screened for agonists of S1P1 receptor (e.g., human S1P1 receptor) using HTRF® assay for direct cAMP measurement (Gabriel et al, ASSAY and Drug Development Technologies, 1:291-303, 2003) and recombinant CHO-K1 cells stably transfected with S1P1 receptor. CHO-K1 cells were obtained from ATCC® (Manassas, Va.; Catalog #CCL-61). An agonist of S1P1 receptor was detected in HTRF® assay for direct cAMP measurement as a compound which decreased cAMP concentration. HTRF® assay also was used to determine EC50 values for S1P1 receptor agonists.
Principle of the assay: HTRF® assay kit was purchased from Cisbio-US, Inc. (Bedford, Mass.; Catalog #62AM4PEC). The HTRF® assay supported by the kit is a competitive immunoassay between endogenous cAMP produced by the CHO-K1 cells and tracer cAMP labeled with the dye d2. The tracer binding is visualized by a monoclonal anti-cAMP antibody labeled with Cryptate. The specific signal (i.e., fluorescence resonance energy transfer, FRET) is inversely proportional to the concentration of unlabeled cAMP in the standard or sample.
The fluorescence ratio of the samples (test compound or compound buffer) was calculated and used to deduce respective cAMP concentrations by reference to the cAMP standard curve.
Setup of the assay: HTRF® assay was carried out using a two-step protocol essentially according to the kit manufacturer's instructions, in 20 μL total volume per well in 384-well plate format (ProxiPlates; PerkinElmer, Fremont, Calif.; catalog #6008280). To each of the experimental wells was transferred 1500 recombinant CHO-K1 cells in 5 μL phosphate buffered saline containing calcium chloride and magnesium chloride (“PBS+”; Invitrogen, Carlsbad, Calif.; catalog #14040) supplemented with IBMX (250 μM) and rolipram (20 μM) (phosphodiesterase inhibitors; Sigma-Aldrich, St. Louis, Mo.; catalog #I5879 and catalog #R6520, respectively), followed by test compound in 5 μL compound buffer (PBS+ supplemented with […] (water-soluble forskolin derivative; SignaGen Laboratories, Gaithersburg, Md.; catalog #PKI-NKH477-010)) or 5 μL compound buffer. The plate was then incubated at room temperature for 1 hour. To each well was then added 5 μL cAMP-d2 conjugate in lysis buffer and 5 μL Cryptate conjugate in lysis buffer according to the kit manufacturer's instructions. The plate was then further incubated at room temperature for 1 hour, after which the assay plate was read.
Assay readout: HTRF® readout was accomplished using a PHERAstar (BMG LABTECH Inc., Durham, N.C.) or EnVision™ (PerkinElmer, Fremont Calif.) microplate reader.

[2] = biological target: S1P3 receptor (Homo sapiens, UniProt Q99500); experiment: Cellular/functional Ca2+ assay for agonist activity on S1P3 receptor; format: cell-based; design: a human neuroblastoma cell line which endogenously expresses S1P3 (predominantly); endogenous in cells; conditions: human neuroblastoma cell line endogenously expressing S1P3; FIG. 1
Text: Of these, S1P3 and S1P2 receptors respond to agonist, such as S1P, with an intracellular calcium increase. […] Such an assay can be performed commercially, e.g. by Caliper LifeSciences (Hopkinton, Mass.).
Assay: The human neuroblastoma cells were washed and resuspended in physiological buffer. The cells were then loaded with dye that measures intracellular calcium. S1P was used as a reference agonist. Compound 52 was included in the assay as a test compound. After addition of S1P or Compound 52, fluorescence was measured at 485 nm excitation/525 nm emission every 2 s for at least 60 s. Calcium ionophore A23187 was then added as an internal positive control.

[3] = tested on: Male BALB/c mice; experiment: Mouse peripheral lymphocyte lowering (PLL) assay; format: in vivo; conditions: 1 mg/kg i.v. in 100% PEG400, 5 h post dose, compared with vehicle; *P<0.05; FIG. 2
Protocol: Animals: Male BALB/c mice (6 to 7 weeks of age at start of study) (Charles River Laboratories, Wilmington, Mass.) were housed four per cage and maintained in a humidity- (40-60%) and temperature- (68-72° F.) controlled facility on a 12 h:12 h light/dark cycle (lights on at 6:30 am) with free access to food (Harlan Teklad, Orange, Calif., Rodent Diet 8604) and water. Mice were allowed one week of habituation to the animal facility before testing.
PLL Assay: Mice were administered via i.v. one of the following: saline, vehicle (100% PEG400) or 1 mg/kg Compound 52 in vehicle, in a total volume of 5 ml/kg. Peripheral blood samples were collected at 5 h post dose. The mice were anesthetized with isoflurane and bled retro-orbitally (300 μL) into 1.5 ml EDTA tubes. A complete cell count (CBC) (including lymphocyte count) was obtained using CELL-DYN® 3700 (Abbott Laboratories, Abbott Park, Ill.). Results are presented in FIG. 2, in which peripheral blood lymphocyte (PBL) count is shown for the 5 hour group.

T1 sequence (P21453 whole entry): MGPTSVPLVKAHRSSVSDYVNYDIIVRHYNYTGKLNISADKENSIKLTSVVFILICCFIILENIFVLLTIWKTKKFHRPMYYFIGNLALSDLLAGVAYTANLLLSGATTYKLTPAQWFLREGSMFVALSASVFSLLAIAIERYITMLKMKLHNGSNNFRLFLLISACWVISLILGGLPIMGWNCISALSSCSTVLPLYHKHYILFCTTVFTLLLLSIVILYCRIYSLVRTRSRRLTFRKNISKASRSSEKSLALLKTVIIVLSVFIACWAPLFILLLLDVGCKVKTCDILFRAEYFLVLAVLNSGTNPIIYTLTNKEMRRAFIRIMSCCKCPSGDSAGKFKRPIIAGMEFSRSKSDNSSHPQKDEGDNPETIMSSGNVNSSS
Chain of S1P3 receptor (Q99500 whole entry): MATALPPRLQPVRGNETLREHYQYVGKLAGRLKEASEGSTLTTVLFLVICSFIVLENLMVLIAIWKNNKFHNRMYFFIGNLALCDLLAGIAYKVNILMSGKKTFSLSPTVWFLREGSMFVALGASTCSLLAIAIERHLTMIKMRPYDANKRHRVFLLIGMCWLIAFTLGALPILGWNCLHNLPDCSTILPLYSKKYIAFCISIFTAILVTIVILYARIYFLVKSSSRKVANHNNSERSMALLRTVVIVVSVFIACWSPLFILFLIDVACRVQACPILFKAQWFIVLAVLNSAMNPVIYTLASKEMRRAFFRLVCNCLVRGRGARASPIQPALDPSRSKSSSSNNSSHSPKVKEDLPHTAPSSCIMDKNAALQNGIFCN

| SMILES | EC50 [1] [nM] | agonist activity on S1P3 receptor (intracellular calcium) [2] | peripheral blood lymphocyte (PBL) count / peripheral lymphocyte lowering [3] |
| --- | --- | --- | --- |
| NC(=O)c1cc(OC(F)(F)F)cc(-c2nc(-c3ccc4[nH]c5c(c4c3)CCC5CC(=O)O)no2)c1 (stereo not shown) [Compound 51, 2-(7-(5-(3-Carbamoyl-5-(trifluoromethoxy)phenyl)-1,2,4-oxadiazol-3-yl)-1,2,3,4-tetrahydrocyclopenta[b]indol-3-yl)acetic Acid] | 230 |  |  |
| N#Cc1cc(OCCF)cc(-c2nc(-c3ccc4[nH]c5c(c4c3)CCC5CC(=O)O)no2)c1 (stereo not shown) [Compound 32, 2-(7-(5-(3-Cyano-5-(2-fluoroethoxy)phenyl)-1,2,4-oxadiazol-3-yl)-1,2,3,4-tetrahydrocyclopenta[b]indol-3-yl)acetic Acid] | 43 |  |  |
| CNc1ccc2oc(C[C@H]3O[C@@]4(CC[C@H]3C)O[C@H]([C@H](C)C(=O)c3ccc[nH]3)[C@H](C)C[C@H]4C)nc2c1C(=O)O [Compound A23187, reference compound] |  | pronounced agonist activity |  |
| O=C(O)CC1CCc2c1[nH]c1ccc(-c3noc(-c4ccc(OCC(F)(F)F)nc4)n3)cc21 (stereo not shown) [Compound 47, 2-(7-(5-(6-(2,2,2-Trifluoroethoxy)pyridin-3-yl)-1,2,4-oxadiazol-3-yl)-1,2,3,4-tetrahydrocyclopenta[b]indol-3-yl)acetic Acid] | 83 |  |  |
| COc1ccc(-c2nc(-c3ccc4[nH]c5c(c4c3)CCC5CC(=O)O)no2)cc1C(F)(F)F (stereo not shown) [Compound 42, 2-(7-(5-(4-Methoxy-3-(trifluoromethyl)phenyl)-1,2,4-oxadiazol-3-yl)-1,2,3,4-tetrahydrocyclopenta[b]indol-3-yl)acetic Acid] | 94 |  |  |
| O=C(O)CC1CCc2c1[nH]c1ccc(-c3noc(-c4cc(C(F)(F)F)cc(C(F)(F)F)c4)n3)cc21 (stereo not shown) [Compound 52, 2-(7-(5-(3,5-Bis(trifluoromethyl)phenyl)-1,2,4-oxadiazol-3-yl)-1,2,3,4-tetrahydrocyclopenta[b]indol-3-yl)acetic Acid] | 75.9 | substantially little to no activity; also recorded: no or substantially no agonist activity | exhibited activity for inducing peripheral lymphocyte lowering |
| N#Cc1cc(-c2nc(-c3ccc4[nH]c5c(c4c3)CCC5CC(=O)O)no2)ccc1OC1CCCC1 (single isomer, unassigned) [Compound 19, 2-(7-(5-(3-Cyano-4-(cyclopentyloxy)phenyl)-1,2,4-oxadiazol-3-yl)-1,2,3,4-tetrahydrocyclopenta[b]indol-3-yl)acetic Acid] | 18.8 |  |  |
| CCOc1ncc(-c2nc(-c3ccc4[nH]c5c(c4c3)CCC5CC(=O)O)no2)cc1C (stereo not shown) [Compound 62, 2-(7-(5-(6-Ethoxy-5-methylpyridin-3-yl)-1,2,4-oxadiazol-3-yl)-1,2,3,4-tetrahydrocyclopenta[b]indol-3-yl)acetic Acid] | 210 |  |  |
